{
  "source": "patent US20220340633A1",
  "about": "(Adepthera LLC, priority 2016, published 2022)",
  "key": {"CLR/RAMP2 receptor": {"target": "T1, CLR/RAMP2 receptor (Homo sapiens, UniProt O60895+Q16602)", "T1 construct": "host or cells: CHO-K1 cells", "T1 sequence (Q16602 23-461)": "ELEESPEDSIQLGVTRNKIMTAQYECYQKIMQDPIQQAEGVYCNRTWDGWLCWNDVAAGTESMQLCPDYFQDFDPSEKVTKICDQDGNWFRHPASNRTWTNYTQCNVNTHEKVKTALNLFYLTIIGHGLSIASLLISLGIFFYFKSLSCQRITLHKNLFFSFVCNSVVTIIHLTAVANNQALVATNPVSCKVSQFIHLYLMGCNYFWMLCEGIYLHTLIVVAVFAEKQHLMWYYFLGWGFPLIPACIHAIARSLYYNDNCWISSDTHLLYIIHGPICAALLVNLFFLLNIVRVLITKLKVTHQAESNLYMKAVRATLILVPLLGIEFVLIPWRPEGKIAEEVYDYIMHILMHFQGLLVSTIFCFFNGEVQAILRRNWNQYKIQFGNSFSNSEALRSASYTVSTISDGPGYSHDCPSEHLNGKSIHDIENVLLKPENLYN", "T1 sequence (O60895 43-175)": "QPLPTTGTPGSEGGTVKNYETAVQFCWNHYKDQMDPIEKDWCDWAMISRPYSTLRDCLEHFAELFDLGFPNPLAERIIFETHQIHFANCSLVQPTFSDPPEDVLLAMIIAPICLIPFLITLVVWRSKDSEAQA", "assay": "CLR/RAMP2 arrestin receptor activation assay (agonist)", "format": "cell-based", "details": "CHO-K1, read-out: CLR/RAMP 2 Max Activity % of positive control, CHO-K1 cells; % of positive control (ADM)", "protocol": "Using a receptor activation assay, the dose-dependent stimulatory response of peptide agonists of the present invention on a CLR/RAMP1 receptor, a CLR/RAMP2, or a CLR/RAMP3 receptor complex was determined. A cell line carrying the recombinant CLR/RAMP1, CLR/RAMP2, or a CLR/RAMP3 receptor was employed in the assay. Peptide agonist activities were tested, in duplicate, at 10 different concentrations, starting with 1.0 μM and serially diluted 3-fold, in DMSO. […] The CLR/RAMP1 cAMP, CLR/RAMP2 arrestin assays, and CLR/RAMP3 cAMP (DiscoveRx, Fremont, Calif.) were used."}, "CLR/RAMP1 receptor": {"target": "CLR/RAMP1 receptor (Homo sapiens, UniProt O60894+Q16602)", "sequence (Q16602 23-461)": "as the sequence (Q16602 23-461) above", "sequence (O60894 27-148)": "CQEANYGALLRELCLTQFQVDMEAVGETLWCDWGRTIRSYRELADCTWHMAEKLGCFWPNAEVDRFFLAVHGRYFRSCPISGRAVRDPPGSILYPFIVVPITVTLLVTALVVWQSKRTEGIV", "assay": "CLR/RAMP1 cAMP receptor activation assay (agonist)", "format": "cell-based", "design": "host or cells: 1321N1 cells", "details": "% of positive control (β-CGRP)"}, "[1]": {"details": "1321-N1, read-out: CLR/RAMP 1 Max Activity % of positive control, 1321N1 cells"}},
  "note": "Read-outs that look alike come from different tables or passages of the source. Positions of bridges follow the written chain, without caps; N, C: chain ends. Non-standard residues stand in square brackets, D forms with d. Residues, ends and D or L forms follow the SMILES beside them. *: point of attachment. Palmitoyl = CCCCCCCCCCCCCCCC(=O)*; AEEA = NCCOCCOCC(=O)O",
  "data": [
    {"molecule": "CCCCCCCCCCCCCCCC(=O)NCCCC[C@H](NC(=O)[C@@H](NC(=O)COCCOCCN)[C@@H](C)O)C(=O)N[C@@H](CCCCN)C(=O)N[C@H](C(=O)N[C@@H](CC(C)C)C(=O)N[C@@H](CCCNC(=N)N)C(=O)N[C@H](C(=O)NCC(=O)N[C@H]1CSSC[C@@H](C(=O)N[C@H](C(=O)N[C@H](C(=O)N[C@@H](CCC(N)=O)C(=O)N[C@@H](CCCCN)C(=O)N[C@@H](CC(C)C)C(=O)N[C@@H](C)C(=O)N[C@@H](Cc2c[nH]cn2)C(=O)N[C@@H](CCC(N)=O)C(=O)N[C@H](C(=O)N[C@@H](Cc2ccc(O)cc2)C(=O)N[C@@H](CCC(N)=O)C(=O)N[C@@H](Cc2ccccc2)C(=O)N[C@H](C(=O)N[C@@H](CC(=O)O)C(=O)N[C@@H](CCCCN)C(=O)N[C@@H](CC(=O)O)C(=O)N[C@@H](CCCCN)C(=O)N[C@@H](CC(=O)O)C(=O)N[C@@H](CC(N)=O)C(=O)N[C@H](C(=O)N[C@@H](C)C(=O)N2CCC[C@H]2C(=O)N[C@H](C(=O)N[C@@H](CC(=O)O)C(=O)N2CCC[C@H]2C(=O)N[C@@H](CO)C(=O)N[C@@H](CO)C(=O)N2CCC[C@H]2C(=O)N[C@@H](Cc2c[nH]cn2)C(=O)N[C@@H](CO)C(=O)N[C@@H](Cc2ccc(O)cc2)C(N)=O)C(C)C)C(C)C)[C@@H](C)O)[C@@H](C)CC)C(C)C)[C@@H](C)O)NC(=O)[C@H]([C@@H](C)O)NC(=O)CNC(=O)[C@H](Cc2ccccc2)NC(=O)[C@H](CCCNC(=N)N)NC1=O)[C@@H](C)O)[C@@H](C)O", "note": "[SEQ ID NO: 42]", "values": [
      {"measurement": "Emax", "setting": "CLR/RAMP2 receptor", "value": 76, "unit": "%"},
      {"measurement": "Emax", "setting": "CLR/RAMP1 receptor; [1]", "value": 56, "unit": "%"}
    ]},
    {"molecule": "CCCCCCCCCCCCCCCC(=O)NCCCC[C@H](NC(=O)COCCOCCN)C(=O)N[C@H]1CSSC[C@@H](C(=O)N[C@H](C(=O)N[C@H](C(=O)N[C@@H](CCC(N)=O)C(=O)N[C@@H](CCCCN)C(=O)N[C@@H](CC(C)C)C(=O)N[C@@H](C)C(=O)N[C@@H](Cc2c[nH]cn2)C(=O)N[C@@H](CCC(N)=O)C(=O)N[C@H](C(=O)N[C@@H](Cc2ccc(O)cc2)C(=O)N[C@@H](CCC(N)=O)C(=O)N[C@@H](Cc2ccccc2)C(=O)N[C@H](C(=O)N[C@@H](CC(=O)O)C(=O)N[C@@H](CCCCN)C(=O)N[C@@H](CC(=O)O)C(=O)N[C@@H](CCCCN)C(=O)N[C@@H](CC(=O)O)C(=O)N[C@@H](CC(N)=O)C(=O)N[C@@H](CO)C(=O)N[C@@H](C)C(=O)N2CCC[C@H]2C(=O)N[C@H](C(=O)N[C@@H](CC(=O)O)C(=O)N2CCC[C@H]2C(=O)N[C@@H](CO)C(=O)N[C@@H](CO)C(=O)N2CCC[C@H]2C(=O)N[C@@H](Cc2c[nH]cn2)C(=O)N[C@@H](CO)C(=O)N[C@@H](Cc2ccc(O)cc2)C(N)=O)C(C)C)[C@@H](C)O)[C@@H](C)CC)C(C)C)[C@@H](C)O)NC(=O)[C@H]([C@@H](C)O)NC(=O)CNC(=O)[C@H](Cc2ccccc2)NC(=O)[C@H](CCCNC(=N)N)NC1=O", "note": "[SEQ ID NO: 43] (H-[AEEA]K(Palmitoyl)CRFGTCTVQKLAHQIYQFTDKDKDNSAPVDPSSPHSY-NH2; disulfide 3-8)", "values": [
      {"measurement": "Emax", "setting": "CLR/RAMP2 receptor", "value": 30, "unit": "%"},
      {"measurement": "Emax", "setting": "CLR/RAMP1 receptor; [1]", "value": 39, "unit": "%"}
    ]},
    {"molecule": "CCCCCCCCCCCCCCCC(=O)NCCCC[C@H](NC(=O)COCCOCCN)C(=O)NCC(=O)N[C@H]1CSSC[C@@H](C(=O)N[C@H](C(=O)N[C@H](C(=O)N[C@@H](CCC(N)=O)C(=O)N[C@@H](CCCCN)C(=O)N[C@@H](CC(C)C)C(=O)N[C@@H](C)C(=O)N[C@@H](Cc2c[nH]cn2)C(=O)N[C@@H](CCC(N)=O)C(=O)N[C@H](C(=O)N[C@@H](Cc2ccc(O)cc2)C(=O)N[C@@H](CCC(N)=O)C(=O)N[C@@H](Cc2ccccc2)C(=O)N[C@H](C(=O)N[C@@H](CC(=O)O)C(=O)N[C@@H](CCCCN)C(=O)N[C@@H](CC(=O)O)C(=O)N[C@@H](CCCCN)C(=O)N[C@@H](CC(=O)O)C(=O)N[C@@H](CO)C(=O)N[C@@H](C)C(=O)N2CCC[C@H]2C(=O)N[C@H](C(=O)N[C@@H](CC(=O)O)C(=O)N2CCC[C@H]2C(=O)N[C@@H](CO)C(=O)N[C@@H](CO)C(=O)N2CCC[C@H]2C(=O)N[C@@H](Cc2c[nH]cn2)C(=O)N[C@@H](CO)C(=O)N[C@@H](Cc2ccc(O)cc2)C(N)=O)C(C)C)[C@@H](C)O)[C@@H](C)CC)C(C)C)[C@@H](C)O)NC(=O)[C@H]([C@@H](C)O)NC(=O)CNC(=O)[C@H](Cc2ccccc2)NC(=O)[C@H](CCCNC(=N)N)NC1=O", "note": "[SEQ ID NO: 46] (H-[AEEA]K(Palmitoyl)GCRFGTCTVQKLAHQIYQFTDKDKDSAPVDPSSPHSY-NH2; disulfide 4-9)", "values": [
      {"measurement": "Emax", "setting": "CLR/RAMP2 receptor", "value": 104, "unit": "%"},
      {"measurement": "Emax", "setting": "CLR/RAMP1 receptor; [1]", "value": 60, "unit": "%"}
    ]},
    {"molecule": "CCCCCCCCCCCCCCCC(=O)NCCCC[C@H](NC(=O)COCCOCCN)C(=O)NCC(=O)N[C@H]1CSSC[C@@H](C(=O)N[C@H](C(=O)N[C@H](C(=O)N[C@@H](CCC(N)=O)C(=O)N[C@@H](CCCCN)C(=O)N[C@@H](CC(C)C)C(=O)N[C@@H](C)C(=O)N[C@@H](Cc2c[nH]cn2)C(=O)N[C@@H](CCC(N)=O)C(=O)N[C@H](C(=O)N[C@@H](Cc2ccc(O)cc2)C(=O)N[C@@H](CCC(N)=O)C(=O)N[C@@H](Cc2ccccc2)C(=O)N[C@H](C(=O)N[C@@H](CC(=O)O)C(=O)N[C@@H](CCCCN)C(=O)N[C@@H](CC(=O)O)C(=O)N[C@@H](CCCCN)C(=O)N[C@@H](CC(=O)O)C(=O)N[C@@H](CC(N)=O)C(=O)N[C@H](C(=O)N[C@@H](C)C(=O)N2CCC[C@H]2C(=O)N[C@H](C(=O)N[C@@H](CC(=O)O)C(=O)N2CCC[C@H]2C(=O)N[C@@H](CO)C(=O)N[C@@H](CO)C(=O)N2CCC[C@H]2C(=O)N[C@@H](Cc2c[nH]cn2)C(=O)N[C@@H](CO)C(=O)N[C@@H](Cc2ccc(O)cc2)C(N)=O)C(C)C)C(C)C)[C@@H](C)O)[C@@H](C)CC)C(C)C)[C@@H](C)O)NC(=O)[C@H]([C@@H](C)O)NC(=O)CNC(=O)[C@H](Cc2ccccc2)NC(=O)[C@H](CCCNC(=N)N)NC1=O", "note": "[SEQ ID NO: 50]", "values": [
      {"measurement": "Emax", "setting": "CLR/RAMP2 receptor", "value": 87, "unit": "%"},
      {"measurement": "Emax", "setting": "CLR/RAMP1 receptor; [1]", "value": 65, "unit": "%"}
    ]},
    {"molecule": "CSCC[C@H](NC(=O)[C@H](CC(C)C)NC(=O)[C@H](CCC(N)=O)NC(=O)[C@H](Cc1c[nH]c2ccccc12)NC(=O)[C@H](CC(C)C)NC(=O)[C@H](Cc1c[nH]cn1)NC(=O)[C@H](C)NC(=O)[C@H](CC(C)C)NC(=O)[C@H](CCCCN)NC(=O)[C@H](CCC(N)=O)NC(=O)[C@@H](NC(=O)[C@@H](NC(=O)[C@@H]1CSSC[C@H](NC(=O)CNC(=O)[C@@H](NC(C)=O)C(C)C)C(=O)N[C@@H](CCCNC(=N)N)C(=O)N[C@@H](Cc2ccccc2)C(=O)NCC(=O)N[C@@H]([C@@H](C)O)C(=O)N1)[C@@H](C)O)C(C)C)C(=O)NCC(=O)N1CCC[C@H]1C(=O)N[C@@H](C)C(=O)NCC(=O)N[C@@H](CCCNC(=N)N)C(=O)N[C@@H](CCC(N)=O)C(=O)N[C@@H](CC(=O)O)C(=O)N[C@@H](CO)C(=O)N[C@@H](C)C(=O)N1CCC[C@H]1C(=O)N[C@H](C(=O)N[C@@H](CC(=O)O)C(=O)N1CCC[C@H]1C(=O)N[C@@H](CO)C(=O)N[C@@H](CO)C(=O)N1CCC[C@H]1C(=O)N[C@@H](Cc1c[nH]cn1)C(=O)N[C@@H](CO)C(=O)N[C@@H](Cc1ccc(O)cc1)C(N)=O)C(C)C", "note": "[SEQ ID NO: 58]", "values": [
      {"measurement": "Emax", "setting": "CLR/RAMP1 receptor; [1]", "value": 0, "unit": "%"}
    ]},
    {"molecule": "CCCCCCCCCCCCCCCC(=O)NCCCC[C@H](NC(=O)COCCOCCN)C(=O)NCC(=O)N[C@H]1CSSC[C@@H](C(=O)N[C@H](C(=O)N[C@H](C(=O)N[C@@H](CCC(N)=O)C(=O)N[C@@H](CCCCN)C(=O)N[C@@H](CC(C)C)C(=O)N[C@@H](C)C(=O)N[C@@H](Cc2c[nH]cn2)C(=O)N[C@@H](CCC(N)=O)C(=O)N[C@H](C(=O)N[C@@H](Cc2ccc(O)cc2)C(=O)N[C@@H](CCC(N)=O)C(=O)N[C@@H](Cc2ccccc2)C(=O)N[C@H](C(=O)N[C@@H](CC(=O)O)C(=O)N[C@@H](CCCCN)C(=O)NCC(=O)N[C@@H](CCCNC(=N)N)C(=O)N[C@@H](CCC(N)=O)C(=O)N[C@@H](CC(=O)O)C(=O)N[C@@H](CO)C(=O)N[C@@H](C)C(=O)N2CCC[C@H]2C(=O)N[C@H](C(=O)N[C@@H](CC(=O)O)C(=O)N2CCC[C@H]2C(=O)N[C@@H](CO)C(=O)N[C@@H](CO)C(=O)N2CCC[C@H]2C(=O)N[C@@H](Cc2c[nH]cn2)C(=O)N[C@@H](CO)C(=O)N[C@@H](Cc2ccc(O)cc2)C(N)=O)C(C)C)[C@@H](C)O)[C@@H](C)CC)C(C)C)[C@@H](C)O)NC(=O)[C@H]([C@@H](C)O)NC(=O)CNC(=O)[C@H](Cc2ccccc2)NC(=O)[C@H](CCCNC(=N)N)NC1=O", "note": "[SEQ ID NO: 68]", "values": [
      {"measurement": "Emax", "setting": "CLR/RAMP2 receptor", "value": 70, "unit": "%"}
    ]},
    {"molecule": "CSCC[C@H](NC(=O)CNC(=O)CNC(=O)[C@H](CO)NC(=O)[C@H](CCCNC(=N)N)NC(=O)[C@H](CO)NC(=O)[C@H](CC(C)C)NC(=O)[C@H](CC(C)C)NC(=O)CNC(=O)[C@H](C)NC(=O)[C@H](CC(C)C)NC(=O)[C@H](CCCNC(=N)N)NC(=O)[C@H](Cc1c[nH]cn1)NC(=O)[C@@H](NC(=O)[C@@H](NC(=O)[C@@H]1CSSC[C@H](NC(=O)[C@H](C)N)C(=O)N[C@@H](CC(N)=O)C(=O)N[C@@H]([C@@H](C)O)C(=O)N[C@@H](C)C(=O)N[C@@H]([C@@H](C)O)C(=O)N1)C(C)C)[C@@H](C)O)C(=O)N[C@H](C(=O)N[C@@H](CCCCN)C(=O)N[C@@H](CO)C(=O)N[C@@H](CC(N)=O)C(=O)N[C@@H](Cc1ccccc1)C(=O)N[C@H](C(=O)N1CCC[C@H]1C(=O)N[C@H](C(=O)N[C@@H](CC(N)=O)C(=O)N[C@H](C(=O)NCC(=O)N[C@@H](CO)C(=O)N[C@@H](CCCCN)C(=O)N[C@@H](C)C(=O)N[C@@H](Cc1ccccc1)C(N)=O)C(C)C)[C@@H](C)O)C(C)C)C(C)C", "note": "[Wild type CGRP-β positive, reference compound]", "values": [
      {"measurement": "Emax", "setting": "CLR/RAMP1 receptor; 1321-N1, 1321N1 cells, read-out: CLR/RAMP 1 Max Activity % of positive control", "value": 100, "unit": "%"}
    ]}
  ]
}
